In ChEMBL document CHEMBL3745700, “Functionalised isocoumarins as antifungal compounds: Synthesis and biological studies” (Bioorg Med Chem Lett, 2016):
In brackets after ≈: the same amount, converted by molar mass. Activity calls are given as the source filed them. The rule behind the calls is not given here.

How the values were obtained:
Candida albicans [1] = test: Antifungal activity against Candida albicans ATCC 10231 assessed as inhibition of hyphal formation at MIC70 after 36 hrs by microscopic analysis; type: functional, organism-based
MRC5 = test: Cytotoxicity against human MRC5 cells after 48 hrs by MTT assay; type: cell-based; settings: MRC5, 48 h
Candida albicans [2] = test: Antifungal activity against Candida albicans ATCC 10231 by broth microdilution method; type: functional
Candida albicans [3] = test: Binding affinity to Candida albicans ATCC 10231 DNA assessed as degradation at 25 ug/ml after 12 hrs by agarose gel electrophoresis
[4] = Hemolytic activity in Sheep RBC at MIC and IC50 after 1 hr by multiplate reader analysis; type: ADME, cell-based, Ovis aries; settings: erythrocyte
Pichia kudriavzevii = test: Antifungal activity against azole-resistant Candida krusei ATCC 6258 by broth microdilution method; type: functional
Candida parapsilosis = test: Antifungal activity against azole-resistant Candida parapsilosis CA-27 clinical isolate by broth microdilution method; type: functional
Candida albicans [5] = test: Antifungal activity against Candida albicans ATCC 10231 assessed as inhibition of biofilm formation at MIC70 after 48 hrs by propidium iodide/Concanavaline A-FITC staining-based fluorescence microscopic analysis; type: functional, organism-based
Candida albicans [6] = test: Antifungal activity against Candida albicans ATCC 10231 assessed as growth inhibition at 250 ug/disc by disc diffusion method; type: functional, organism-based
Candida albicans [7] = test: Stimulation of hyphal formation in Candida albicans ATCC 10231 at MIC70 after 36 hrs by microscopic analysis; type: functional, organism-based

Compound	inhibition (Candida albicans [1])	IC50 (MRC5) [µg/mL]	MIC (Candida albicans [2]) [µg/mL]	Activity (Candida albicans [3])	Activity [4]	MIC (Pichia kudriavzevii)	MIC (Candida parapsilosis; Lodderomyces parapsilosis) [µg/mL]	inhibition (Candida albicans [5])	growth inhibition (GI) (Candida albicans [6])	Activity (Candida albicans [7])	MIC (Candida parapsilosis)
O=c1oc(-n2ccnc2)cc2ccccc12	Active	25 (≈ 118 µM)	62.5 (≈ 295 µM)	inactive	Non-toxic	–	–	–	–	–	–
O=c1oc(-n2cncn2)cc2ccccc12	Active	40 (≈ 188 µM)	20 (≈ 93.8 µM)	inactive	Non-toxic	125 µg/mL (≈ 586 µM)	> 500	Active	–	–	–
O=c1oc(Br)cc2ccccc12	Active	20 (≈ 88.9 µM)	15.6 (≈ 69.3 µM)	inactive	Non-toxic	3.9 µg/mL (≈ 17.3 µM)	62.5 (≈ 278 µM)	–	Active	–	–
COC(=O)/C=C/c1cc2ccccc2c(=O)o1	Active	30 (≈ 130 µM)	500 (≈ 2170 µM)	inactive	Non-toxic	–	–	–	Active	–	–
O=c1oc(-n2cccn2)cc2ccccc12	Active	30 (≈ 141 µM)	31.2 (≈ 147 µM)	inactive	Non-toxic	> 500 µg/mL	> 500	–	–	–	–
O=c1oc(-n2cnnn2)cc2ccccc12	Active	10 (≈ 46.7 µM)	15.6 (≈ 72.8 µM)	inactive	Non-toxic	62.5 µg/mL (≈ 292 µM)	125 (≈ 584 µM)	–	–	–	–
C[Si](C)(C)C#Cc1cc2ccccc2c(=O)o1	–	30 (≈ 124 µM)	250 (≈ 1030 µM)	inactive	Non-toxic	–	–	–	Active	Active	–
CCOC(=O)c1cn(-c2cc3ccccc3c(=O)o2)cn1	–	25 (≈ 87.9 µM)	62.5 (≈ 220 µM)	–	–	> 500 µg/mL	> 500	Active	–	Active	–
O=c1oc(-n2c(C(F)(F)F)nc3ccccc32)cc2ccccc12	–	15 (≈ 45.4 µM)	150 (≈ 454 µM)	–	–	–	–	–	–	Active	–
O=c1oc(-n2cc(Cl)cn2)cc2ccccc12	Active	15 (≈ 60.8 µM)	5 (≈ 20.3 µM)	–	Non-toxic	125 µg/mL (≈ 507 µM)	> 500	–	–	–	–
C[C@@H](c1ncncc1F)[C@](O)(Cn1cncn1)c1ccc(F)cc1F [VORICONAZOLE]	Active	40 (≈ 115 µM)	7.8 (≈ 22.3 µM)	–	–	inactive	–	–	–	–	inactive
